Source: PMC8129716 (CPT: Pharmacometrics & Systems Pharmacology, 2021)
pEC50: −log10 of the molar value.

Legend:
[1] = human ADME study, single radiolabeled dose 320 mg; assay type: in vivo
[2] = system: Caco‐2; assay: in vitro permeability study; assay type: in vitro ADME; settings: experimental data adjusted to match Fa~0.7
[3] = system: CYP2C9; settings: zanubrutinib 320 mg total daily dose, cocktail; cited from earlier work
[4] = system: CYP2C9; assay: CYP2C9 induction in vitro; assay type: in vitro ADME, human
[5] = target: T1, OAT1 (Homo sapiens, UniProt Q4U2R8); assay: transporter substrate/inhibitor assessment; assay type: in vitro ADME
T1 sequence (Q4U2R8 1-563): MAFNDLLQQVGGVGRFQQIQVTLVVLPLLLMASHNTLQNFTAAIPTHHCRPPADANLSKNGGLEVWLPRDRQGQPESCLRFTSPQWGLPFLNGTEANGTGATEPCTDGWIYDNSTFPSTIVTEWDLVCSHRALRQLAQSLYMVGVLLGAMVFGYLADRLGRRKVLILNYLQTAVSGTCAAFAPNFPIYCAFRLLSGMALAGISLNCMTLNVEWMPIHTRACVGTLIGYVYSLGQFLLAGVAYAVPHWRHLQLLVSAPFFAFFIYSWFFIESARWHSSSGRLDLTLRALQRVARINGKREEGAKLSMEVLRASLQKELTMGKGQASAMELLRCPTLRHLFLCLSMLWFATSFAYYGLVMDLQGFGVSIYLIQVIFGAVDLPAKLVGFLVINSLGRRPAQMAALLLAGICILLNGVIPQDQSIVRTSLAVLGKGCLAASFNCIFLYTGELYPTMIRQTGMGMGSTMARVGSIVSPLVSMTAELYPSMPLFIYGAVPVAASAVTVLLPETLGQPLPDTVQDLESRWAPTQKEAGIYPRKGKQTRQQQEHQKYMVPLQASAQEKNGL

[6] = target: T2, OCT2 (Homo sapiens, UniProt O15244); assay: transporter substrate/inhibitor assessment; assay type: in vitro ADME
T2 sequence (O15244 1-555): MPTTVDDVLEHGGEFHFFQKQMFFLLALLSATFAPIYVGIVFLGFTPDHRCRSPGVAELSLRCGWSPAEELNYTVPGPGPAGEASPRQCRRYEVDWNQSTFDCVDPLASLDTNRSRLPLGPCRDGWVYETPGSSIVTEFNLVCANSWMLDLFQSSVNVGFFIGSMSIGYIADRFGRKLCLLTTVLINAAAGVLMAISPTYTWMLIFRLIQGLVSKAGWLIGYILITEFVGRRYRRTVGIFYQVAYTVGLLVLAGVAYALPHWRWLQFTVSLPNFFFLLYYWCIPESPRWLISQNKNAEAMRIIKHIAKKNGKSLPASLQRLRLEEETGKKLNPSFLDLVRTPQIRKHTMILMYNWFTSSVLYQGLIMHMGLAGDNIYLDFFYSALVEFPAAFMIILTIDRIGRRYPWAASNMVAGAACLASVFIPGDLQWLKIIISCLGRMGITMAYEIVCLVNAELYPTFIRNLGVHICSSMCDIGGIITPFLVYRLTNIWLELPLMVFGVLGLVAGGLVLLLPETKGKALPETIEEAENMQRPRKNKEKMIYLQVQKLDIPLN

[7] = system: CYP3A; settings: cited from earlier work
[8] = system: CYP2B6; assay: CYP2B6 induction in vitro; assay type: in vitro ADME, human
[9] = single radiolabeled 320 mg, healthy subjects

With C=CC(=O)N1CCC([C@@H]2CCNc3c(C(N)=O)c(-c4ccc(Oc5ccccc5)cc4)nn32)CC1 [zanubrutinib, Zanubrutinib] the zanubrutinib absorbed ([1]; inferred from unchanged drug in feces) was 60–70%, the “dose excreted renally as parent drug” value ([1]; single radiolabeled 320 mg) was 0.4 % of the dose and the “unchanged zanubrutinib in feces” value ([1]; single radiolabeled 320 mg) was 38 % of the dose. For the same compound, the “dose recovered in feces” value [1, 9] was “approximately 87%”, the “dose recovered in urine” value [1, 9] was roughly 8% and the “Peff,man” value [2] was 0.9 10^−4 cm/s. For the same compound, the “effect on the activity of CYP2C9, BCRP and P-gp” value [3] was “minimal or no effect”, the “increase of CYP2C9 activity” value ([4]; 0.3 μM) was […] and the “increase of CYP2C9 activity” value ([4]; 3 μM) was […]. For the same compound, the “increase of CYP2C9 activity” value ([4]; 30 μM) was […], the “Indmax CYP2C9” value ([4]; Emax model on activity data) was […] and the pEC50 ([4]; human, hepatocytes) was […]. For the same compound, the “substrate or inhibitor of OAT1” value [5] was “not a substrate or inhibitor”, the “substrate or inhibitor of OCT2” value [6] was “not a substrate or inhibitor” and the “CYP3A induction in vivo” value ([7]; clinical study BGB-3111-108 with midazolam) was “weak CYP3A inducer”. The “mean reduction of systemic exposure of CYP3A and CYP2C19 substrates” value ([7]; zanubrutinib 320 mg total daily dose) was less than 50%, the “increase of CYP2B6 mRNA levels” value ([8]; 0.3 μM) was 1.6 fold and the “increase of CYP2B6 mRNA levels” value ([8]; 3 μM) was 3.6 fold. For the same compound, the “increase of CYP2B6 mRNA levels” value ([8]; 30 μM) was 2.6 fold, the “Indmax CYP2B6” value ([8]; Emax model) was 2.21 fold and the pEC50 ([8]; human, hepatocytes) was 6.14. For the same compound, the “R3 (CYP2B6 induction potential)” value ([8]; per FDA DDI guidance, from in vitro data) was 0.55.
